Data on eight molecules can be found in PubChem BioAssay (NCI).

Values joined by “and” are separate entries in the source; they are usually repeats but may differ in a detail not shown here. Identical values can stand only once.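 Exposure lasted 48 hours, with cells grown in 96-well plates and compounds tested at five concentrations. GI50 is the concentration that inhibits growth by half. TGI denotes the concentration required for complete inhibition of growth.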

Test systems include HS 578T breast; SW-620 colon; NCI-H23 lung; MCF7 breast; NCI-H522 lung; SF-539 CNS; NCI-H226 lung; TK-10 renal; 786-0 renal; LOX IMVI melanoma.
What all share (assay): NCI anticancer screen, dose series, 48 h

For `CC(=O)N[C@@H](Cc1ccc(OP(=O)(O)O)cc1)C(=O)N[C@H]1CCC(=O)N2CCC[C@@H](C(=O)NC3CCc4ccccc43)N2C1=O` (some centres not stated), the GI50 in the experiment with HS 578T breast, in the experiment with SW-620 colon, in the experiment with NCI-H23 lung, in the experiment with MCF7 breast, in the experiment on NCI-H522 lung and in the experiment with SF-539 CNS was > 25 µM throughout. The GI50 in the experiment on NCI-H226 lung, with TK-10 renal, in the experiment on 786-0 renal and with LOX IMVI melanoma was > 25 µM each time. In addition, the TGI in the experiment with HS 578T breast, with SW-620 colon, in the experiment with NCI-H23 lung, in the experiment on MCF7 breast, with NCI-H522 lung and in the experiment with SF-539 CNS was > 25 µM each time. Moreover, the TGI with NCI-H226 lung, in the experiment on TK-10 renal, with 786-0 renal and in the experiment with LOX IMVI melanoma was > 25 µM throughout.
In the case of `CCC(C)C1NC(=O)C(NC(=O)C(CC(C)C)N(C)C(=O)[C@@H]2CC(O)CN2C(=O)[C@H](C)O)C(C)OC(=O)[C@H](Cc2ccc(OC)cc2)N(C)C(=O)[C@@H]2CCCN2C(=O)[C@H](CC(C)C)NC(=O)C(C)C(=O)[C@H](C(C)C)OC(=O)CC1O` (some centres not stated), the GI50 in the experiment with HS 578T breast is < 0.01 µM; in the experiment with SW-620 colon, 0.0581 µM; with MCF7 breast it was < 0.01 µM; with NCI-H522 lung it was 0.0208 µM; in the experiment on SF-539 CNS, 0.0104 µM; in the experiment on NCI-H226 lung, 0.0799 µM. The results for the GI50 in the experiment with TK-10 renal, with 786-0 renal and in the experiment on LOX IMVI melanoma were 0.224 µM, 0.0762 µM and 0.0218 µM, respectively. Besides, the TGI with HS 578T breast is 0.283 µM and 0.0317 µM; with SW-620 colon, 2.3 µM and 0.919 µM; in the experiment on NCI-H23 lung, 0.172 µM; in the experiment on NCI-H522 lung it was 0.902 µM and 0.234 µM; in the experiment on SF-539 CNS, 0.211 µM and 0.335 µM; in the experiment on NCI-H226 lung, 0.521 µM and 0.572 µM. The TGI in the experiment on TK-10 renal is 4.52 µM and 2.05 µM; in the experiment with 786-0 renal it was 1.7 µM and 2.28 µM; with LOX IMVI melanoma it was 1.06 µM and 0.193 µM.
As to `O=C(NN1C(=O)CSC1c1c(Cl)cccc1Cl)C(O)c1ccccc1` (configuration not stated), the GI50 in the experiment on HS 578T breast was > 100 µM; in the experiment on SW-620 colon it was 71.8 µM; in the experiment with NCI-H23 lung, 19.9 µM; in the experiment with MCF7 breast it was 44.2 µM; in the experiment with NCI-H522 lung it was 25.7 µM; in the experiment on SF-539 CNS, > 100 µM. The GI50 with NCI-H226 lung is 38.1 µM; with TK-10 renal, 78.9 µM; in the experiment with 786-0 renal, 69.3 µM; in the experiment on LOX IMVI melanoma it was 64.7 µM. Also, the TGI in the experiment with HS 578T breast, in the experiment on SW-620 colon, in the experiment with NCI-H23 lung, in the experiment on MCF7 breast, with NCI-H522 lung and with SF-539 CNS was > 100 µM each time. The TGI in the experiment with NCI-H226 lung, with TK-10 renal, in the experiment with 786-0 renal and with LOX IMVI melanoma was > 100 µM throughout.
For the molecule `COc1cc(C)[nH]c(=O)c1CNC(=O)c1c(C)n([C@H](C)C2CCN(CC(F)(F)F)CC2)c2ccccc12`, the GI50 in the experiment with HS 578T breast was 95.3 µM; in the experiment with SW-620 colon, 65.3 µM; in the experiment on NCI-H23 lung, > 100 µM; in the experiment on MCF7 breast, 25.7 µM; in the experiment on NCI-H522 lung, 80.3 µM; in the experiment on SF-539 CNS, 67.4 µM. The GI50 in the experiment on NCI-H226 lung is 34.4 µM; in the experiment with TK-10 renal it was 88.5 µM; in the experiment with 786-0 renal, 60.3 µM; in the experiment on LOX IMVI melanoma, 41.6 µM. The TGI with HS 578T breast, in the experiment with SW-620 colon, in the experiment on NCI-H23 lung, in the experiment with MCF7 breast, with NCI-H522 lung and with SF-539 CNS was > 100 µM throughout. Also, the TGI in the experiment on NCI-H226 lung, with TK-10 renal, with 786-0 renal and with LOX IMVI melanoma was > 100 µM each time.
For the molecule `O=C(CN1CCN(C(=O)c2ccco2)CC1)Nc1ccc(Cl)cc1C(=O)c1ccccc1Cl`, the GI50 with HS 578T breast is 10.8 µM; in the experiment with SW-620 colon, 12 µM; in the experiment on NCI-H23 lung, 10.4 µM; in the experiment on MCF7 breast, 5.31 µM; in the experiment with NCI-H522 lung, 4.16 µM; with SF-539 CNS, 13.6 µM. For the same molecule, the GI50 in the experiment on NCI-H226 lung is 13.3 µM; in the experiment with TK-10 renal, 10.2 µM; in the experiment with 786-0 renal it was 13.6 µM; in the experiment with LOX IMVI melanoma it was 11.1 µM. For the same molecule, the TGI in the experiment with HS 578T breast stood at 33 µM; with SW-620 colon, 30.6 µM; with NCI-H23 lung, 62.2 µM; in the experiment with MCF7 breast, 21.7 µM; in the experiment on NCI-H522 lung it was 27.4 µM; in the experiment with SF-539 CNS, 26.9 µM. Also, the TGI in the experiment on NCI-H226 lung came out at 44.8 µM; with TK-10 renal it was 36.2 µM; in the experiment on 786-0 renal, 42.5 µM; with LOX IMVI melanoma, 23.1 µM.
As to `COC(=O)[C@]12CC[C@@H](C)[C@H](C)[C@@H]1C1=CC[C@@H]3[C@@](C)(CC#N)C4=C(C[C@@]3(C)[C@]1(C)CC2)OC[C@]4(C)C=O`, the GI50 with HS 578T breast was 6 µM; in the experiment with SW-620 colon, 4.16 µM; with NCI-H23 lung, 3.88 µM; in the experiment with MCF7 breast, 3.05 µM; with NCI-H522 lung it was 14.7 µM; with SF-539 CNS it was 2.96 µM. Besides, the GI50 was 8.51 µM in the experiment with NCI-H226 lung, 8.07 µM in the experiment on TK-10 renal, 11.6 µM with 786-0 renal and 3.11 µM in the experiment on LOX IMVI melanoma. In addition, the TGI in the experiment with HS 578T breast was 52.3 µM; with SW-620 colon, 30.6 µM; with NCI-H23 lung, 40.7 µM; in the experiment with MCF7 breast it was 11.4 µM; in the experiment on NCI-H522 lung, 46.9 µM; with SF-539 CNS it was 16.6 µM. The TGI in the experiment on NCI-H226 lung was 43.7 µM; with TK-10 renal, > 100 µM; in the experiment with 786-0 renal, 71.1 µM; with LOX IMVI melanoma, 13.3 µM.
In the case of `CC(C)C1=CC2=C(C(=O)C1=O)C13CCCC(C)(C)C1CC2OC3=O` (configuration not stated), the TGI in the experiment with HS 578T breast was > 100 µM; in the experiment on SW-620 colon, 35.2 µM; with NCI-H23 lung, 61.7 µM; in the experiment on MCF7 breast it was 55.5 µM; in the experiment on NCI-H522 lung, 30.6 µM; in the experiment with SF-539 CNS, 46.3 µM. Further, the TGI amounted to 49.2 µM in the experiment on NCI-H226 lung, 28.6 µM in the experiment with TK-10 renal, 31.9 µM with 786-0 renal and 39.7 µM in the experiment on LOX IMVI melanoma.
Take `COc1ccc(/C=C\c2cc(OC)c(OC)c(OC)c2)c(NS(=O)(=O)c2ccc(F)cc2)c1O`: the GI50 was 0.113 µM with HS 578T breast; 0.0434 µM in the experiment on SW-620 colon; 0.128 µM in the experiment with NCI-H23 lung; 0.0483 µM in the experiment with MCF7 breast; 0.222 µM in the experiment on NCI-H522 lung; 0.0622 µM with SF-539 CNS. Moreover, the GI50 is 0.142 µM in the experiment on NCI-H226 lung, 2.25 µM in the experiment with TK-10 renal, 0.294 µM in the experiment on 786-0 renal and 0.142 µM with LOX IMVI melanoma. Besides, the TGI with HS 578T breast is > 100 µM; in the experiment with SW-620 colon, > 100 µM; in the experiment on NCI-H23 lung, > 62.4 µM; in the experiment on MCF7 breast, > 46.3 µM; with NCI-H522 lung it was 15 µM; with SF-539 CNS, 0.192 µM. The TGI in the experiment on TK-10 renal was > 100 µM; with 786-0 renal, 47.5 µM; in the experiment on LOX IMVI melanoma, 36.8 µM.
